How the values were obtained:
Experiment in all cases: relative viability (nuclei count vs DMSO), 5 days (fraction); higher = more cells survive
KN-93 + Trametinib = compound: CN(C/C=C/C1=CC=C(C=C1)Cl)CC2=CC=CC=C2N(CCO)S(=O)(=O)C3=CC=C(C=C3)OC [KN-93] + CC(=O)Nc1cccc(-n2c(=O)n(C3CC3)c(=O)c3c(Nc4ccc(I)cc4F)n(C)c(=O)c(C)c32)c1 [Trametinib] (partner 0.02 µM)
Summary of the method: (§1)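 A single step with final 0.05% Triton X-100, 1% formaldehyde and 1 ug/ml Hoechst fixed the cells and stained nuclei 5 days after treatment. Lung cancer cell lines in 1536-well plates had been treated by pin tool the day after seeding with one drug alone or a fixed anchor-drug dose plus five library-drug doses (not always all listed) in √10 steps, and nuclei were counted on 4× images. Relative viability is the ratio of nuclei in treated wells to nuclei in vehicle wells, taken as the median of duplicate plates.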

KN-93 + AZD7762 = compound: CN(C/C=C/C1=CC=C(C=C1)Cl)CC2=CC=CC=C2N(CCO)S(=O)(=O)C3=CC=C(C=C3)OC [KN-93] + NC(=O)Nc1cc(-c2cccc(F)c2)sc1C(=O)N[C@H]1CCCNC1 [AZD7762] (partner 0.2 µM)
Summary of the method: as §1

KN-93 + Lapatinib = compound: CN(C/C=C/C1=CC=C(C=C1)Cl)CC2=CC=CC=C2N(CCO)S(=O)(=O)C3=CC=C(C=C3)OC [KN-93] + CS(=O)(=O)CCNCc1ccc(-c2ccc3ncnc(Nc4ccc(OCc5cccc(F)c5)c(Cl)c4)c3c2)o1 [Lapatinib] (partner 2 µM)
Summary of the method: as §1

KN-93 + Vorinostat = compound: CN(C/C=C/C1=CC=C(C=C1)Cl)CC2=CC=CC=C2N(CCO)S(=O)(=O)C3=CC=C(C=C3)OC [KN-93] + O=C(CCCCCCC(=O)Nc1ccccc1)NO [Vorinostat] (partner 1 µM)
Summary of the method: as §1

KN-93 = compound: CN(C/C=C/C1=CC=C(C=C1)Cl)CC2=CC=CC=C2N(CCO)S(=O)(=O)C3=CC=C(C=C3)OC [KN-93]
Summary of the method: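 Lung cancer cell lines in 1536-well plates were exposed by pinning to five library-drug doses (not always all listed) √10 apart, following an overnight hold at 37 °C. MetaXpress counted Hoechst-stained nuclei from 4× images taken after 5 days without medium change. Viability is the median ratio of treated-well to vehicle-well nuclei across plates. Plates required control CV below 25% and at least one doubling.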

Cell Line | relative viability (KN-93 + Trametinib; first compound 0.08 µM) | relative viability (KN-93 + Trametinib; first compound 0.253 µM) | relative viability (KN-93 + Trametinib; first compound 2.53 µM) | relative viability (KN-93 + Trametinib; first compound 8 µM) | relative viability (KN-93 + AZD7762; first compound 0.08 µM) | relative viability (KN-93 + AZD7762; first compound 0.253 µM) | relative viability (KN-93 + AZD7762; first compound 2.53 µM) | relative viability (KN-93 + AZD7762; first compound 8 µM) | relative viability (KN-93 + Lapatinib; first compound 0.08 µM) | relative viability (KN-93 + Lapatinib; first compound 0.253 µM) | relative viability (KN-93 + Lapatinib; first compound 2.53 µM) | relative viability (KN-93 + Lapatinib; first compound 8 µM) | relative viability (KN-93 + Vorinostat; first compound 0.08 µM) | relative viability (KN-93 + Vorinostat; first compound 0.253 µM) | relative viability (KN-93 + Vorinostat; first compound 2.53 µM) | relative viability (KN-93 + Vorinostat; first compound 8 µM) | relative viability (KN-93; 0.08 µM) | relative viability (KN-93; 0.253 µM) | relative viability (KN-93; 2.53 µM) | relative viability (KN-93; 8 µM)
A-427 | 0.799 | 0.746 | 0.772 | 0.438 | 0.657 | 0.771 | 1.03 | 0.548 | 1.21 | 1.28 | 1.05 | 0.878 | 0.856 | 0.862 | 0.868 | 0.59 | 1.03 | 1.21 | 0.976 | 0.531
NCI-H1355 | 0.436 | 0.324 | 0.375 | 0.343 | 0.822 | 0.694 | 0.826 | 0.703 | 0.954 | 0.79 | 1.05 | 0.913 | 0.685 | 0.516 | 0.739 | 0.578 | 0.834 | 0.891 | 1.06 | 0.724
NCI-H1993 | 0.547 | 0.542 | 0.498 | 0.501 | 0.608 | 0.654 | 0.708 | 0.586 | 0.693 | 0.772 | 0.862 | 0.758 | 0.659 | 0.711 | 0.742 | 0.702 | 0.973 | 0.921 | 1.04 | 0.772
HCC-827 | 0.539 | 0.546 | 0.491 | 0.426 | 0.195 | 0.159 | 0.191 | 0.186 | 0.218 | 0.204 | 0.197 | 0.194 | 0.929 | 0.874 | 0.793 | 0.777 | 1.08 | 1.05 | 1.05 | 0.851
H3255 | 0.643 | 0.59 | 0.671 | 0.417 | 0.878 | 0.894 | 0.989 | 0.558 | 0.266 | 0.241 | 0.259 | 0.224 | 0.842 | 0.76 | 0.927 | 0.311 | 1.03 | 0.992 | 0.969 | 0.666
EKVX | 0.359 | 0.285 | 0.341 | 0.279 | 0.623 | 0.515 | 0.73 | 0.354 | 0.209 | 0.133 | 0.194 | 0.153 | 0.642 | 0.653 | 0.655 | 0.585 | 0.839 | 0.768 | 1.04 | 0.691
NCI-H838 | 0.563 | 0.482 | 0.522 | 0.509 | 0.842 | 0.884 | 0.992 | 0.831 | 0.903 | 0.78 | 1.12 | 0.746 | 0.738 | 0.62 | 0.663 | 0.592 | 0.935 | 0.883 | 1.02 | 0.908
NCI-H647 | 0.353 | 0.499 | 0.468 | 0.466 | 0.398 | 0.557 | 0.447 | 0.381 | 0.836 | 1.07 | 1.26 | 0.819 | 0.532 | 0.853 | 0.601 | 0.323 | 0.985 | 1.25 | 1.01 | 0.813
NCI-H1651 | 0.79 | 0.886 | 0.689 | 0.683 | 0.394 | 0.505 | 0.526 | 0.353 | 0.732 | 1.02 | 0.914 | 0.664 | 0.517 | 0.607 | 0.601 | 0.528 | 0.932 | 1.07 | 1.09 | 0.865

Source: the supplement of paper PMC10307832
